Reference: patent publication US6166085A, “Method of producing analgesia” (priority 1996, dated 2000)
“Also recorded” adds a separate entry of the source.

Experiments:
[1] = system: formalin-induced nociceptive responses; test: Rat formalin test (paw flinching), intrathecal drug; format: in vivo, Sprague-Dawley rats
From the text: One such model, for response to an acute stimulus, is the rat formalin test. This test reflects several levels of processing of nociceptive information in the spinal cord (see Wheeler-Aceto, et al. 1990; Wheeler-Aceto, et al., 1991). […] This second phase is thought to represent a state of facilitated processing evoked by the afferent input present during phase 1 and to involve release of at least two substances, glutamate and a, tachykinin, based on pharmacological evidence (Yamamoto and Yaksh, 1991, 1992).
In the rat formalin test, a standard dose of formalin is injected into the rat paw, and flexions of the paw are quantitated over the following 90 minute period (Example 1). A biphasic response pattern is typically observed, with numerous responses observed during the period 5 min. after injection (Phase 1) and a second phase (Phase 2) which occurs during the period about 10-60 minutes following injection. The mean number of flinches per minute is recorded as a function of time.
Quantitation of responses during each phase is made by calculation of area under the curve of flinches/min., as shown in FIGS. 2B-2C.
FIGS. 2, 3 and 5 show results of experiments in which varying doses of 3-hydroxy MEGX designated 3-hydroxy MEGX, were tested for effects on the formalin response in rats. A 5% formalin solution was injected subcutaneously into the hindpaw of Sprague-Dawley rats. Ten minutes prior to formalin injection, 3-hydroxy MEGX was administered by bolus injection through an indwelling spinal (intrathecal) catheter terminating at the lumbar enlargement. For the results shown in FIGS. 2A-2C, dosing solutions were acidified to pH 6.58 with HCl. Injection volume was 20 μl.
In the standard rat formalin test, as described above, the test substance is administered prior to formalin injection. […]
Rats (male Sprague-Dawley, 275-300 g, Harlan Industries, Indianapolis, Ind.) were implanted with lumbar intrathecal catheters under halothane anesthesia (Yaksh and Rudy, 1976). Catheters (Polyethlyene PE-10) extended from the cisterna to the rostral edge of the lumbar enlargement. Three to five days after implant, animals without motor dysfunction were tested. Drugs tested in this assay were dissolved in sterile saline (0.9% NaCl) and injected in a volume of 10 μl followed by 10 μl sterile saline to clear the catheter.
Animals were examined for the effects of drugs given in the formalin test, in which 50 μl of 5% formalin was injected on the plantar surface of the paw of a lightly anesthetized (halothane, 3%) animal. The number of spontaneous flinchings/shakings of the injected paw were counted at intervals after the injection of the formalin.
The area under the curve of flinches/min was calculated for phase 1 (time=0-10 min) and phase 2 (10-60 min). […]

mechanical allodynia = test: Mechanical allodynia in rat model of peripheral neuropathy (L5/L6 spinal nerve ligation), intrathecal, Example 2; format: in vivo, Sprague-Dawley rats; conditions: for effect on mechanical allodynia (50% response threshold), 0.6 μmol: 0.6 μmol intrathecal
Method: Experiments carried out in support of the present invention were performed in a rat model of peripheral neuropathy detailed in Example 2. Briefly, in the model used, rats are subjected to a surgical procedure, described by Kim and Chung (1992), designed to reproducibly injure peripheral nerves (spinal nerves L5 and L6). These rats develop a hyperesthetic state, which can be measured using one or more paradigms known in the art. Here, allodynia was measured by stimulation of neuropathic rat hindlimb using wire hairs having graded degrees of stiffness.
[…]. Test solutions at pH 6.58 were administered intrathecally as described above. Mechanical allodynia was measured by pressing nylon filaments of varying diameters against the paw. Data are expressed in terms of 50% response threshold, which is the median buckling weight required to evoke paw withdrawal; the lower the stimulus level, the more severe the allodynia.
Male Sprague-Dawley rats (200-350 gm) were prepared with chronic lumbar intrathecal catheters inserted under halothane anesthesia (Yaksh and Rudy). Animals were placed in a prone position and the left paraspinal muscles were separated from the spinous processes at the L4 -S2 levels, as described by Kim et al. The left L5 and L6 nerve roots were exposed and tightly ligated with 6-0 surgical silk suture. The rats were allowed to recover from anesthesia. Allodynia was typically observed to occur beginning 1-2 days post surgery and continuing for as long as 45 days. For testing, animals were placed in plastic cubicles with open wire mesh bottoms. Compound dissolved in preservative-free saline solution was administered in a volume of 10 μl through the intrathecal catheter, followed by 10 μl saline to flush the catheter line. Animals were tested for allodynia at various time points after drug treatment, as described below.
To assess the threshold of a non-noxious stimulus required to produce a left hind paw withdrawal (allodynia), Von Frey hairs (ranging from 0.4-15 grams), were systematically applied to the surgically treated hind paw. Failure to evoke a response was cause to test the next stiffer hair. Evocation of a brisk withdrawal response was cause to test the next lower stimulus intensity. This paradigm was repeated according to a statistical method (Dixon, 1976) to define the 50% response threshold.
Data in FIG. 6 are expressed in terms of 50% response threshold, which is the median buckling weight required to evoke paw withdrawal; the lower the stimulus level, the more severe the allodynia. Allodynia thresholds, measured 30 minutes after injection, were plotted against dosage. Each point represents a value for a single animal.

[2] = Observation of motor dysfunction and overt behavior / side effects; format: in vivo, Sprague-Dawley rats; conditions: for overt changes in behavior / adverse side effects, formalin test: formalin test studies; for overt changes in behavior / adverse side effects, formalin test / adverse side effects, neuropathy model: intrathecal; for adverse side effects, neuropathy model: neuropathic rats, 3-hydroxy MEGX 0.3 and 0.6 μmol, lidocaine 0.6 μmol
From the text: Animals were also observed for the appearance of general motor dysfunction,as evidenced by inability to ambulate symmetrically and for any other overt signs of unusual activity.

[3] = system: sciatic nerve compound action potential; test: Rat sciatic nerve compound action potential in vivo, direct application; design: species or system Harlan Sprague Dawley rats; conditions: for blockade of sciatic nerve compound action potential (in words): direct application, metabolites 5 mg, 10 min
Method: Male Harlan Sprague Dawley rats (300-350 g) were anesthetized with pentobarbital/diazepam. The sciatic nerves were sequentially and bilaterally exposed by sharp/blunt dissection from the popliteal region proximally. Electrodes were placed at the sciatic notch (stimulating), and the interossei (recording); a grounding electrode was applied remote from the field. Baseline compound action potential (CAP) (A alpha/beta) wave heights (mV) in response to stimulation 1× per minute were recorded for ten minutes to obtain a stable reference. One drug/vehicle solution was applied per nerve, at mid-nerve (mid-thigh) level, in a volume of 250 μl, and compound action potential wave height then was recorded 1× per minute for ten minutes after application.

[4] = acute Phase 1, intrathecal, 10 min before 5% formalin, pH 6.58
[5] = lowest dose, 16.5 μg intrathecal, pH 6.58
[6] = persistent Phase 2, intrathecal, 10 min before 5% formalin, pH 6.58

## CCNCC(=O)Nc1c(C)ccc(O)c1C [3-hydroxy MEGX, 2-(ethylamino)-N-(3-hydroxy-2,6-dimethylphenyl) acetamide]
[1]; [4]
  Phase 1 ED50 (approximately 50% inhibition): 9.3 µg
  Phase 1 ED50 (approximately 50% inhibition), molar: 42 nmol
[1]; higher doses, intrathecal, pH 6.58, "up to 90 minutes or longer"
  duration of inhibition, higher doses: ≥ 90 min
[1]; intrathecal after formalin injection, pH 6.58
  blockade of persistent (Phase 2) nociceptive responses: blocks persistent (Phase 2) nociceptive responses
[1]; intrathecal, dosing solutions pH 9.2, n=4 animals/group
  blockade of formalin-induced acute and persistent nociceptive responses: dose-dependent blockade
[1]; [5]
  duration of inhibition: up to one hour
  inhibition of Phase 1 and Phase 2 responses: showed inhibition of both the Phase 1 and Phase 2 responses
[1]; [6]
  Phase 2 ED50 (approximately 50% inhibition): 29.9 µg
  Phase 2 ED50 (approximately 50% inhibition), molar: 135 nmol
Mechanical allodynia; 0.3 μmol intrathecal, pH 6.58
  effect on mechanical allodynia (50% response threshold), 0.3 μmol: significant analgesic effects
Mechanical allodynia; pH 6.58
  effect on mechanical allodynia (50% response threshold), 0.6 μmol: significant analgesic effects
Mechanical allodynia; intrathecal, single bolus, n=6 animals/treatment
  time of peak elevation of response (blockade of allodynia): 30 to 60 min
Mechanical allodynia; intrathecal, varying doses, n=6 animals/treatment
  elevation of threshold response: resulted in elevation of threshold response
Mechanical allodynia; intrathecal, "possibly up to"
  possible maximum duration of effect of a single bolus injection: up to 20 hours
Mechanical allodynia; intrathecal, lasting in excess of
  duration of effect of a single bolus injection: > 3 h
[2]; IT, 3-hydroxy MEGX at effective anti-allodynia dose, MEGX in excess
  motor block / motor effects (summary): did not cause motor block at an effective anti-allodynia dose; also recorded: no evidence of motor effects
[2]
  overt changes in behavior / adverse side effects, formalin test: produced no overt changes in behavior
  adverse side effects, neuropathy model: no observable adverse side effects
[3]; FIG. 12 legend
  local anesthetic (sodium channel blocking) activity: appears to lack local anesthetic (sodium channel blocking) activity altogether
[3]; lidocaine 2.5 mg
  blockade of sciatic nerve compound action potential (in words): no blockade could be obtained
[3]; metabolites at 5 mg, lidocaine 2.5 mg
  activity in ranking of CAP blockade (Lido>MEGS>3-OH L>>3-OH MEGX=0): 0

## CCN(CC)CC(=O)Nc1c(C)cccc1C [lidocaine]
[1]; intrathecal, pH 6.58, injection volume 20 μl
  effect on formalin-induced nociceptive responses: no effect on the formalin-induced nociceptive responses
Mechanical allodynia; pH 6.58
  effect on mechanical allodynia (50% response threshold), 0.6 μmol: did not block mechanical allodynia
[2]; IT, 500 μg
  duration of motor dysfunction (hindquarter flaccidity / weakness): approximately 10 minutes
[2]; IT, Example 3, lidocaine and MEGX 500 μg, 3-OH L 58 μg (highest dose soluble in vehicle)
  motor dysfunction, IT (in words): acute onset of hindquarter flaccidity
[2]
  overt changes in behavior / adverse side effects, formalin test: transient hindlimb paresis
  adverse side effects, neuropathy model: immediate and transient weakness
[3]; lidocaine 2.5 mg
  blockade of sciatic nerve compound action potential (in words): rapid and complete blockade of the sciatic nerve action potential; also recorded: abolished the CAP with ten minutes
